Measured values from ChEMBL document CHEMBL1201862, “PubChem BioAssay data set” (2004).
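Test compounds were applied to cells in 96-well plates for 48 hours at 5 doses. GI50 marks 50% less growth.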 Active and inactive are the calls of the source. No stated cut-off is given here; in the data, active = GI50 up to about 1.1 µM and inactive = higher.

Key:
Assay in all cases: inhibition of tumour cell growth, NCI panel, 48 h
786-0 = system: 786-0
A549 = system: A549
ACHN = system: ACHN
CCRF-CEM = system: CCRF-CEM
COLO 205 = system: COLO 205
DU-145 = system: DU-145
EKVX = system: EKVX
HCC 2998 = system: HCC 2998
HCT-15 = system: HCT-15
HL-60 = system: HL-60
HOP-62 = system: HOP-62
HOP-92 = system: HOP-92
HT-29 = system: HT-29
Hs-578T = system: Hs-578T
IGROV-1 = system: IGROV-1
K562 = system: K562
KM12 = system: KM12
M14 = system: M14
MCF7 = system: MCF7
MDA-N = system: MDA-N
MOLT-4 = system: MOLT-4
Malme-3M = system: Malme-3M
NCI-H226 = system: NCI-H226
NCI-H23 = system: NCI-H23
NCI-H460 = system: NCI-H460
NCI-H522 = system: NCI-H522
NCI/ADR-RES = system: NCI/ADR-RES
OVCAR-5 = system: OVCAR-5
OVCAR-8 = system: OVCAR-8
PC-3 = system: PC-3
RPMI-8226 = system: RPMI-8226
SF-268 = system: SF-268
SF-295 = system: SF-295
SF-539 = system: SF-539
SK-MEL-28 = system: SK-MEL-28
SK-MEL-5 = system: SK-MEL-5
SN12C = system: SN12C
SNB-19 = system: SNB-19
SR = system: SR
SW-620 = system: SW-620
T47D = system: T47D
TK-10 = system: TK-10
U-251 = system: U-251
UACC-62 = system: UACC-62
UO-31 = system: UO-31
CAKI-1 = system: CAKI-1
HCT-116 = system: HCT-116
LOX IMVI = system: LOX IMVI
MDA-MB-231 = system: MDA-MB-231
MDA-MB-435 = system: MDA-MB-435
OVCAR-3 = system: OVCAR-3
OVCAR-4 = system: OVCAR-4
RXF 393 = system: RXF 393
SK-MEL-2 = system: SK-MEL-2
SK-OV-3 = system: SK-OV-3
SNB-75 = system: SNB-75
UACC-257 = system: UACC-257

CCOC1CCC2C(CCC(/C=C/c3ccc(O)c4ncccc34)N2C)C1 (configuration not stated)
GI50 (786-0): 6.44 µM (inactive)
GI50 (A549): 25.1 µM (inactive)
GI50 (ACHN): 32.7 µM (inactive)
GI50 (CCRF-CEM): 4.65 µM (inactive)
GI50 (COLO 205): 3.56 µM (inactive)
GI50 (DU-145): 10.3 µM (inactive)
GI50 (EKVX): 4.98 µM (inactive)
GI50 (HCC 2998): 24.2 µM (inactive)
GI50 (HCT-15): 40.8 µM
GI50 (HL-60): 3.84 µM (inactive)
GI50 (HOP-62): 8.71 µM (inactive)
GI50 (HOP-92): 11.7 µM (inactive)
GI50 (HT-29): 7.03 µM (inactive)
GI50 (Hs-578T): 15.2 µM (inactive)
GI50 (IGROV-1): 11.4 µM (inactive)
GI50 (K562): 4.6 µM (inactive)
GI50 (KM12): 17.4 µM (inactive)
GI50 (M14): 15.4 µM (inactive)
GI50 (MCF7): 4.23 µM (inactive)
GI50 (MDA-N): 38.5 µM (inactive)
GI50 (MOLT-4): 3.72 µM (inactive)
GI50 (Malme-3M): 31.6 µM (inactive)
GI50 (NCI-H226): 37.4 µM (inactive)
GI50 (NCI-H23): 10.3 µM (inactive)
GI50 (NCI-H460): 7.89 µM (inactive)
GI50 (NCI-H522): 1.99 µM (inactive)
GI50 (NCI/ADR-RES): > 100 µM (inactive)
GI50 (OVCAR-5): 33.2 µM (inactive)
GI50 (OVCAR-8): 3.53 µM (inactive)
GI50 (PC-3): 8.75 µM (inactive)
GI50 (RPMI-8226): 25.4 µM (inactive)
GI50 (SF-268): 6.24 µM (inactive)
GI50 (SF-295): 24 µM (inactive)
GI50 (SF-539): 3.67 µM (inactive)
GI50 (SK-MEL-28): 29.6 µM (inactive)
GI50 (SK-MEL-5): 19.7 µM (inactive)
GI50 (SN12C): 4.78 µM (inactive)
GI50 (SNB-19): 16 µM (inactive)
GI50 (SR): 3.21 µM (inactive)
GI50 (SW-620): 7.59 µM (inactive)
GI50 (T47D): 9.86 µM (inactive)
GI50 (TK-10): 33.2 µM (inactive)
GI50 (U-251): 15.4 µM (inactive)
GI50 (UACC-62): 8.89 µM (inactive)
GI50 (UO-31): 26.1 µM (inactive)

Cc1ccc(/C(=C/C=C(C#N)C#N)Sc2cc(Cl)ccc2Cl)cc1
GI50 (786-0): 1.92 µM (inactive)
GI50 (A549): 9.98 µM (inactive)
GI50 (ACHN): 2.7 µM (inactive)
GI50 (CAKI-1): 4.76 µM (inactive)
GI50 (COLO 205): 4.86 µM (inactive)
GI50 (DU-145): 3.4 µM (inactive)
GI50 (EKVX): 14 µM (inactive)
GI50 (HCT-116): 0.83 µM (active)
GI50 (HCT-15): 3.06 µM
GI50 (HOP-62): 3.71 µM (inactive)
GI50 (HT-29): 3.81 µM (inactive)
GI50 (Hs-578T): 2.42 µM (inactive)
GI50 (IGROV-1): 8.41 µM (inactive)
GI50 (KM12): 4.78 µM (inactive)
GI50 (LOX IMVI): 1.01 µM (active)
GI50 (M14): 4.48 µM (inactive)
GI50 (MCF7): 17.5 µM (inactive)
GI50 (MDA-MB-231): 3.18 µM (inactive)
GI50 (MDA-MB-435): 2.43 µM (inactive)
GI50 (Malme-3M): 16.9 µM (inactive)
GI50 (NCI-H226): 3.02 µM (inactive)
GI50 (NCI-H23): 3.85 µM (inactive)
GI50 (NCI-H460): 4.31 µM (inactive)
GI50 (NCI-H522): 3.55 µM (inactive)
GI50 (NCI/ADR-RES): 2.42 µM (inactive)
GI50 (OVCAR-3): 3.06 µM (inactive)
GI50 (OVCAR-4): 6.31 µM (inactive)
GI50 (OVCAR-5): 5.02 µM (inactive)
GI50 (OVCAR-8): 2.37 µM (inactive)
GI50 (RXF 393): 7.29 µM (inactive)
GI50 (SF-268): 5.97 µM (inactive)
GI50 (SF-295): 3.43 µM (inactive)
GI50 (SF-539): 3.18 µM (inactive)
GI50 (SK-MEL-28): 8.57 µM (inactive)
GI50 (SK-MEL-2): 8.75 µM (inactive)
GI50 (SK-MEL-5): 12.1 µM (inactive)
GI50 (SK-OV-3): 8 µM (inactive)
GI50 (SN12C): 3.22 µM (inactive)
GI50 (SNB-19): 5.97 µM (inactive)
GI50 (SNB-75): 17 µM (inactive)
GI50 (SW-620): 1.66 µM (inactive)
GI50 (T47D): 12.9 µM (inactive)
GI50 (TK-10): 2.92 µM (inactive)
GI50 (U-251): 3.21 µM (inactive)
GI50 (UACC-257): 2.78 µM (inactive)
GI50 (UACC-62): 3.85 µM (inactive)
GI50 (UO-31): 8.81 µM (inactive)
